Source: the NIST ThermoML archive (doi:10.1021/acs.jced.7b00650)
Numbers after ± are expanded uncertainties.

Conditions: Liquid; for viscosity: Capillary tube (Ostwald / Ubbelohde) method; for mass density: Vibrating tube method

Which viscosity (303.15 K, 2001 kPa) does the source give for `CCCCCCCCCC` [decane] here?
The viscosity was 0.8079 ± 0.0089 mPa·s.

What about the mass density (303.15 K, 2001 kPa) of the same molecule?
Its mass density is 724.01 ± 0.96 kg/m3.

What about the viscosity (303.15 K, 3991 kPa) of the same molecule?
Its viscosity is 0.8268 ± 0.0091 mPa·s.

What about the mass density (303.15 K, 3991 kPa) of the same molecule?
The mass density was 725.58 ± 0.96 kg/m3.

And the viscosity (303.15 K, 6003 kPa)?
Its viscosity is 0.8461 ± 0.0093 mPa·s.

And the mass density (303.15 K, 6003 kPa)?
The mass density was 727.19 ± 0.97 kg/m3.

What about the viscosity (303.15 K, 8001 kPa) of the same molecule?
The viscosity was 0.8655 ± 0.0095 mPa·s.

What about the mass density (303.15 K, 8001 kPa) of the same molecule?
The mass density was 728.75 ± 0.97 kg/m3.

And the viscosity (303.15 K, 9992 kPa)?
The viscosity was 0.885 ± 0.0097 mPa·s.

And the mass density (303.15 K, 9992 kPa)?
The mass density was 730.27 ± 0.98 kg/m3.

What about the viscosity (303.15 K, 13006 kPa) of the same molecule?
The viscosity was 0.915 ± 0.01 mPa·s.

And the mass density (303.15 K, 13006 kPa)?
Its mass density is 732.5 ± 0.99 kg/m3.

What about the viscosity (303.15 K, 16005 kPa) of the same molecule?
The viscosity was 0.9445 ± 0.01 mPa·s.

And the mass density (303.15 K, 16005 kPa)?
Its mass density is 734.69 ± 1 kg/m3.

And the viscosity (303.15 K, 18998 kPa)?
Its viscosity is 0.9734 ± 0.011 mPa·s.

And the mass density (303.15 K, 18998 kPa)?
The mass density was 736.88 ± 1 kg/m3.

What about the viscosity (303.15 K, 21997 kPa) of the same molecule?
The viscosity was 1.004 ± 0.011 mPa·s.

What about the mass density (303.15 K, 21997 kPa) of the same molecule?
Its mass density is 739 ± 1 kg/m3.

What about the viscosity (303.15 K, 25008 kPa) of the same molecule?
Its viscosity is 1.035 ± 0.011 mPa·s.

What about the mass density (303.15 K, 25008 kPa) of the same molecule?
Its mass density is 741.03 ± 1 kg/m3.

And the viscosity (303.15 K, 27989 kPa)?
The viscosity was 1.066 ± 0.012 mPa·s.

And the mass density (303.15 K, 27989 kPa)?
Its mass density is 743.02 ± 1 kg/m3.

What about the viscosity (303.15 K, 29988 kPa) of the same molecule?
The viscosity was 1.086 ± 0.012 mPa·s.

And the mass density (303.15 K, 29988 kPa)?
The mass density was 744.3 ± 1.1 kg/m3.

What about the viscosity (323.15 K, 1995 kPa) of the same molecule?
The viscosity was 0.6249 ± 0.007 mPa·s.

What about the mass density (323.15 K, 1995 kPa) of the same molecule?
The mass density was 708.76 ± 0.94 kg/m3.

And the viscosity (323.15 K, 4003 kPa)?
The viscosity was 0.6386 ± 0.0071 mPa·s.

What about the mass density (323.15 K, 4003 kPa) of the same molecule?
Its mass density is 710.68 ± 0.94 kg/m3.

And the viscosity (323.15 K, 5997 kPa)?
Its viscosity is 0.6529 ± 0.0073 mPa·s.

What about the mass density (323.15 K, 5997 kPa) of the same molecule?
Its mass density is 712.57 ± 0.95 kg/m3.

What about the viscosity (323.15 K, 8005 kPa) of the same molecule?
Its viscosity is 0.6676 ± 0.0074 mPa·s.

What about the mass density (323.15 K, 8005 kPa) of the same molecule?
The mass density was 714.3 ± 0.96 kg/m3.

And the viscosity (323.15 K, 10006 kPa)?
The viscosity was 0.6824 ± 0.0076 mPa·s.

And the mass density (323.15 K, 10006 kPa)?
Its mass density is 715.96 ± 0.96 kg/m3.

What about the viscosity (323.15 K, 12995 kPa) of the same molecule?
The viscosity was 0.7045 ± 0.0078 mPa·s.

What about the mass density (323.15 K, 12995 kPa) of the same molecule?
Its mass density is 718.36 ± 0.98 kg/m3.

What about the viscosity (323.15 K, 15989 kPa) of the same molecule?
The viscosity was 0.7274 ± 0.008 mPa·s.

What about the mass density (323.15 K, 15989 kPa) of the same molecule?
The mass density was 720.73 ± 0.99 kg/m3.

What about the viscosity (323.15 K, 18994 kPa) of the same molecule?
Its viscosity is 0.7511 ± 0.0083 mPa·s.

And the mass density (323.15 K, 18994 kPa)?
The mass density was 723 ± 1 kg/m3.

What about the viscosity (323.15 K, 21997 kPa) of the same molecule?
Its viscosity is 0.774 ± 0.0085 mPa·s.

What about the mass density (323.15 K, 21997 kPa) of the same molecule?
The mass density was 725.28 ± 1 kg/m3.

What about the viscosity (323.15 K, 25006 kPa) of the same molecule?
The viscosity was 0.7981 ± 0.0088 mPa·s.

And the mass density (323.15 K, 25006 kPa)?
The mass density was 727.5 ± 1 kg/m3.

And the viscosity (323.15 K, 28004 kPa)?
Its viscosity is 0.822 ± 0.009 mPa·s.

And the mass density (323.15 K, 28004 kPa)?
Its mass density is 729.62 ± 1 kg/m3.

And the viscosity (323.15 K, 30005 kPa)?
Its viscosity is 0.8382 ± 0.0092 mPa·s.

What about the mass density (323.15 K, 30005 kPa) of the same molecule?
Its mass density is 731.03 ± 1 kg/m3.

And the viscosity (353.15 K, 5998 kPa)?
The viscosity was 0.4714 ± 0.0053 mPa·s.

What about the mass density (353.15 K, 5998 kPa) of the same molecule?
The mass density was 689.96 ± 0.92 kg/m3.

And the viscosity (353.15 K, 7997 kPa)?
The viscosity was 0.4825 ± 0.0055 mPa·s.

And the mass density (353.15 K, 7997 kPa)?
The mass density was 691.97 ± 0.93 kg/m3.

And the viscosity (353.15 K, 22010 kPa)?
The viscosity was 0.5612 ± 0.0063 mPa·s.

And the mass density (353.15 K, 22010 kPa)?
The mass density was 704.95 ± 0.99 kg/m3.

What about the viscosity (353.16 K, 2000 kPa) of the same molecule?
The viscosity was 0.448 ± 0.0051 mPa·s.

And the mass density (353.16 K, 2000 kPa)?
The mass density was 685.65 ± 0.91 kg/m3.

And the viscosity (353.16 K, 3999 kPa)?
The viscosity was 0.4596 ± 0.0052 mPa·s.

And the mass density (353.16 K, 3999 kPa)?
The mass density was 687.9 ± 0.9 kg/m3.

And the viscosity (353.16 K, 9991 kPa)?
Its viscosity is 0.494 ± 0.0056 mPa·s.

What about the mass density (353.16 K, 9991 kPa) of the same molecule?
The mass density was 694.06 ± 0.94 kg/m3.

And the viscosity (353.16 K, 13003 kPa)?
Its viscosity is 0.5106 ± 0.0058 mPa·s.

What about the mass density (353.16 K, 13003 kPa) of the same molecule?
Its mass density is 697.01 ± 0.95 kg/m3.

And the viscosity (353.16 K, 15994 kPa)?
The viscosity was 0.5272 ± 0.0059 mPa·s.

What about the mass density (353.16 K, 15994 kPa) of the same molecule?
The mass density was 699.86 ± 0.97 kg/m3.

And the viscosity (353.16 K, 19005 kPa)?
Its viscosity is 0.5442 ± 0.0061 mPa·s.

And the mass density (353.16 K, 19005 kPa)?
The mass density was 702.43 ± 0.98 kg/m3.

And the viscosity (353.16 K, 25000 kPa)?
Its viscosity is 0.5788 ± 0.0065 mPa·s.

What about the mass density (353.16 K, 25000 kPa) of the same molecule?
The mass density was 707.44 ± 1 kg/m3.

What about the viscosity (353.16 K, 27992 kPa) of the same molecule?
The viscosity was 0.5967 ± 0.0067 mPa·s.

What about the mass density (353.16 K, 27992 kPa) of the same molecule?
The mass density was 710.01 ± 1 kg/m3.

What about the viscosity (353.16 K, 29995 kPa) of the same molecule?
The viscosity was 0.6086 ± 0.0068 mPa·s.

And the mass density (353.16 K, 29995 kPa)?
Its mass density is 711.67 ± 1 kg/m3.
